36 molecules from ChEMBL document CHEMBL1201862, “PubChem BioAssay data set” (2004) can be followed below.

The target of assay [1] is Cytochrome P450 2C9 (Homo sapiens, UniProt P11712).
Assay [2] concerns the target Cytochrome P450 3A4 (Homo sapiens, UniProt P08684).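 Further: CYP3A4 tested as one member of a cytochrome P450 panel screen.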
In assay [3] the target is Cytochrome P450 2D6 (Homo sapiens, UniProt P10635).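 Further: CYP2D6 member of a cytochrome P450 panel assay.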
The target in assay [4] is T1, Polyadenylate-binding protein 1 (Homo sapiens, UniProt P11940). The experiment in a line: PABP1 MLLE–PAM2 binding inhibitor potency, dose response, biochemical, fluorescence polarization, FITC-PAM2 peptide (AID 602259). In kind it is functional. Conditions: read-out: IC50_Mean. In general terms: Polarisation of emitted light reports the rotation of a fluorescent probe.

The target in assay [5] is T1, Polyadenylate-binding protein 1. As to the kind of experiment: PABP1 MLLE–PAM2 interaction inhibitors, dose response, miRNA deadenylation inhibitor project, biochemical, fluorescence polarization, Cy5-PAM2 peptide, secondary (AID 602260). In kind it is functional. To be noted: read-out: IC50_Mean.
Assay [6] is described as follows: Luminescence Cell-Based Dose Retest to Confirm Inhibitors of Cancer Stem Cells. [Related pubchem assays (depositor defined):AID2717, AID2721]. It is filed as functional. To be noted: Homo sapiens.
Assay [7] concerns the target Cytochrome P450 2C19 (Homo sapiens, UniProt P33261). As to the kind of experiment: Cytochrome panel assay with activity outcomes. Panel member name: p450-cyp2c19 Compounds with AC50 equal or less than 10 uM are considered active. In kind it is functional. Conditions: read-out: AC50.
Assay [8] deals with T2, Heat shock factor protein 1 (Mus musculus, UniProt P38532).
T2 sequence (P38532 whole entry): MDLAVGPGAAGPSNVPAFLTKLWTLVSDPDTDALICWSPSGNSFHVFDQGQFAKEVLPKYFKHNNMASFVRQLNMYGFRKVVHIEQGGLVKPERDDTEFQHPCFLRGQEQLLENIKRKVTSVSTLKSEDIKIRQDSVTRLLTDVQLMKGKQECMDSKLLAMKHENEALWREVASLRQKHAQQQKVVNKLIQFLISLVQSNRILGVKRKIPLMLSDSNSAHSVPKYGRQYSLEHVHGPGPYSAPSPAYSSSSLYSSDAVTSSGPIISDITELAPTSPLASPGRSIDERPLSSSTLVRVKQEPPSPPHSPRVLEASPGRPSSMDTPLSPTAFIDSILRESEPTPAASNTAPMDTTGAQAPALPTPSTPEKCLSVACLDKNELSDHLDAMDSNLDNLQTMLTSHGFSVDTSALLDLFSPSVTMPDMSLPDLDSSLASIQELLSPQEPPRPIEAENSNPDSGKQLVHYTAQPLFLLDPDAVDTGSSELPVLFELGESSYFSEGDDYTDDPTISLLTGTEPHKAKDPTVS
The experiment in a line: inhibition of MG132-induced HSE-luciferase signal, confirmation, cell-based, NIH3T3, luminescence, dose retest (AID 2382).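 Further: NIH3T3 fibroblasts with HSF1-driven luciferase reporter stressed by proteasome inhibitor MG132; luminescence from HSF1-driven luciferase expression after 8 hours of MG132 stress.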 In kind it is functional.

Assay [9] has as its system Streptococcus sp. 'group A'. As to the kind of experiment: growth inhibition of control SK(-) GAS strain, dose response, counter-screen for streptokinase expression inhibitor project, luminescence, kanamycin, BacTiterGlo, confirmation (AID 1900). In kind it is functional, organism-based. In general terms: A counterscreen serves to expose hits that act by an unwanted route or on another target.

Assay [10] concerns Streptococcus. The experiment in a line: Group A Streptococcus viability loss, dose response, counter-screen for streptokinase expression inhibitor project, luminescence, BacTiterGlo (AID 1915).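 Further: potency for reduction of bacterial viability or growth.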 It is filed as functional, organism-based.
For assay [11], the target named is T3, Streptokinase A (Streptococcus pyogenes serotype M1, UniProt P10520).
T3 sequence (P10520 whole entry): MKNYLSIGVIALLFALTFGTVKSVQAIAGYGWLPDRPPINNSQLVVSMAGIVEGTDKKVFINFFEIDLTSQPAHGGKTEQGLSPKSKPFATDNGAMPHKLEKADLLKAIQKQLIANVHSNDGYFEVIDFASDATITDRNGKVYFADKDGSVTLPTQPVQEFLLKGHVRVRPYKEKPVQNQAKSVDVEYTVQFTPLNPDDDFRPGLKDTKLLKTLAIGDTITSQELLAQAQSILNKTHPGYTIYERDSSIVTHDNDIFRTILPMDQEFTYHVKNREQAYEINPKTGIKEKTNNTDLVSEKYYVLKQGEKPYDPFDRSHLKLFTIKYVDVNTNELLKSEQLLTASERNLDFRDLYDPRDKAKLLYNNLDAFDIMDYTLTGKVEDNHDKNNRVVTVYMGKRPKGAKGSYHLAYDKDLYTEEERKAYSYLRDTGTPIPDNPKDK
The experiment in a line: S. pyogenes streptokinase expression inhibitors, potency, dose response, plasminogen activation absorbance, OD405 (AID 1914).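 Further: secreted streptokinase activity via plasminogen activation per viability signal from cell pellet.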 It is filed as functional, Streptococcus pyogenes M1 GAS.

Assay [12] in a line: cytotoxicity toward NIH3T3 fibroblasts, dose response, counter-screen, cell-based, ATP luminescence, mouse fibroblasts (AID 2010).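 Further: cells exposed to compound for about 90 hours before reading.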 It is filed as functional.
A short description of assay [13]: inhibitors of firefly luciferase expression or activity, dose response, H4 neuroglioma cells, luminescence (AID 1990). It is filed as functional, cell-based.
Assay [14] is described as follows: inhibitors of SNCA 5'UTR-driven reporter translation, confirmation, H4 neuroglioma cells, luminescence (AID 1988). It is filed as functional, cell-based.
Assay [15] is described as follows: inhibitors of intracellular T. cruzi replication, confirmation, NIH3T3 host cells, beta-gal luminescence (AID 2044).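 Further: intracellular parasites grown in NIH/3T3 mouse fibroblasts as host cells; luminescent beta-galactosidase reporter signal from transgenic T. cruzi replicating inside host cells; inhibitors lower the luminescence signal.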 In kind it is functional, cell-based.

In general, AC50 refers to the concentration giving half of the maximal activity seen. As a reminder, the EC50 is the concentration at which the effect is half-maximal.

Active and inactive are the calls of the source. A value given as a limit tells only on which side of the number the result lay.

Cytochrome P450 2D6, sequence (P10635 whole entry): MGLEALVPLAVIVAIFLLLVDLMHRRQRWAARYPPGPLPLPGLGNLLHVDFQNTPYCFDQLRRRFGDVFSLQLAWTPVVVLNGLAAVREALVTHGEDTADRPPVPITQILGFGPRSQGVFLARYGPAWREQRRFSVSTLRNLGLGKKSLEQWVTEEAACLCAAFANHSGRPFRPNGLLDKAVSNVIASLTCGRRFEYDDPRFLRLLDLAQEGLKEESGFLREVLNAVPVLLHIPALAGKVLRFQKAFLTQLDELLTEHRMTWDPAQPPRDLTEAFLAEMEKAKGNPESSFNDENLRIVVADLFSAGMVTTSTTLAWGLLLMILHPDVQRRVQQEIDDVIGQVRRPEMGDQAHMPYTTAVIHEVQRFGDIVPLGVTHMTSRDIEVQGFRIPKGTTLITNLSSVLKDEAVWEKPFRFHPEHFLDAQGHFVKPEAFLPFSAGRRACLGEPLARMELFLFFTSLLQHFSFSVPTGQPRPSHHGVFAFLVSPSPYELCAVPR
T1 sequence (P11940 whole entry): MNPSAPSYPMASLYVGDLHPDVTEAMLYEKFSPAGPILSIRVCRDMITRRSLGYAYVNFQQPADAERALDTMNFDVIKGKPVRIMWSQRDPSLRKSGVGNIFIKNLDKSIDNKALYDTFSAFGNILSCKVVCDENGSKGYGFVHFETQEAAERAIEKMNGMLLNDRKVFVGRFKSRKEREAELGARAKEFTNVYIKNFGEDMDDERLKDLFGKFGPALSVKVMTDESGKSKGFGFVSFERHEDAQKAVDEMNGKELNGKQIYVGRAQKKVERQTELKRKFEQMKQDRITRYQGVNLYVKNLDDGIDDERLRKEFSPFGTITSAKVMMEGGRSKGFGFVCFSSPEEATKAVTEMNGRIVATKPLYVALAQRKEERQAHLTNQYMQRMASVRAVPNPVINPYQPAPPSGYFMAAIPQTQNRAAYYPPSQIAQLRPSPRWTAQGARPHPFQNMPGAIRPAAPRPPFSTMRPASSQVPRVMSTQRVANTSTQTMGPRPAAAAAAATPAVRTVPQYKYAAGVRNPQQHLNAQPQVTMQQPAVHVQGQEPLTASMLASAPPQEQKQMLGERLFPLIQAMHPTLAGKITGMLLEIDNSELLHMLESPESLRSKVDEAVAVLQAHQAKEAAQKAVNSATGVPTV
Cytochrome P450 3A4, sequence (P08684 whole entry): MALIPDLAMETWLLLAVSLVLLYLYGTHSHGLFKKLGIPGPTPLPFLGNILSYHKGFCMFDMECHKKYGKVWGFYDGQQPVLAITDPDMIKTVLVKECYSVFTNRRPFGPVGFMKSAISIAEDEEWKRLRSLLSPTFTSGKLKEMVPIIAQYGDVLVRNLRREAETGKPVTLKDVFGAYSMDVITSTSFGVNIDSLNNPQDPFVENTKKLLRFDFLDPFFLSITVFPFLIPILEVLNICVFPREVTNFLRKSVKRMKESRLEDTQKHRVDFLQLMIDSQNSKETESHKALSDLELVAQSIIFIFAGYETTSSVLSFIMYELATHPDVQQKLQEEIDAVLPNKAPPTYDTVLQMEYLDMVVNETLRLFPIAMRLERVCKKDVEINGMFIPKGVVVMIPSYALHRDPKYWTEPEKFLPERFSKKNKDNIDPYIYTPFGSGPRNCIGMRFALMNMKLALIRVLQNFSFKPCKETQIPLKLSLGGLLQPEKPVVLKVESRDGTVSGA
Cytochrome P450 2C19, sequence (P33261 whole entry): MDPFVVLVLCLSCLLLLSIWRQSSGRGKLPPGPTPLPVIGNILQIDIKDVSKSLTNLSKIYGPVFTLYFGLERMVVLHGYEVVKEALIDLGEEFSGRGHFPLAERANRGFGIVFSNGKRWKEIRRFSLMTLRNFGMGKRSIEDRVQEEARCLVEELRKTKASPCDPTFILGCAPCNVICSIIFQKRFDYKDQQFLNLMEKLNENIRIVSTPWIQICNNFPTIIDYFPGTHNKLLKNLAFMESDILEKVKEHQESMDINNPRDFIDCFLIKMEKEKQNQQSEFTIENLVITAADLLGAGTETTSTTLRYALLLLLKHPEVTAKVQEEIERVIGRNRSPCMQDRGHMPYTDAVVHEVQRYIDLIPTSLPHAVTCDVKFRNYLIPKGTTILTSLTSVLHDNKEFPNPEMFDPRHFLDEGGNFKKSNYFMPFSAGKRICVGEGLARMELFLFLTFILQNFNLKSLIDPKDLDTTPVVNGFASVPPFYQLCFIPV
Cytochrome P450 2C9, sequence (P11712 whole entry): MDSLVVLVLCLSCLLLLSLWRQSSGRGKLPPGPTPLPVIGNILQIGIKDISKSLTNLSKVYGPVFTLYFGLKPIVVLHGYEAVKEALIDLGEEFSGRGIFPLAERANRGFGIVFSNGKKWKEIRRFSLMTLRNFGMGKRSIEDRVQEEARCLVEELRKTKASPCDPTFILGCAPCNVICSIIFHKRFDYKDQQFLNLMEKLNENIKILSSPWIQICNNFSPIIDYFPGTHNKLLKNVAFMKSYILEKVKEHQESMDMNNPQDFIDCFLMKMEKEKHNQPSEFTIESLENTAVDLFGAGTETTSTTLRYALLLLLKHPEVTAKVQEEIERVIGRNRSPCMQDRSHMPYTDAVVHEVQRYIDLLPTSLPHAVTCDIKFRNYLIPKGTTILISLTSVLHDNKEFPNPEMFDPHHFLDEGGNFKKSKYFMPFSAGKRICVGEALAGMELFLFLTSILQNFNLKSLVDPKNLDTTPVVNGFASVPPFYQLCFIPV

As for `CCOc1ccc(-n2c(SCC(=O)Nc3ccc(OC)cc3)nc3c(c2=O)SCC3)cc1`, the AC50 was 3.55 µM (inconclusive) in assay [1], 7.94 µM (inconclusive) in assay [2] and 15.8 µM (inconclusive) in assay [3].
With `CCOC(=O)C(CC)Sc1nc2c(c(=O)[nH]c(=O)n2C)n1CCc1ccccc1` (stereo not given), the IC50 in [4] and in assay [5] was > 66 µM (inactive) each time.
For the molecule `O=C(Nc1ccc(OC(F)F)c(Cl)c1)Nc1ccc2c(c1)OCO2`, the AC50 in assay [6] is 2.04 µM (active).
Consider `CS(=O)(=O)N1CCN(c2ccccc2NC(=O)c2ccc(Br)o2)CC1`, for which the AC50 in assay [7] is 39.8 µM (inconclusive); in [3], 22.4 µM (inconclusive).
Consider `CC(=O)N1CCC[C@@]2(CCN(Cc3ccccc3)C2)C1`, for which the figures for the AC50 in assay [2] and in assay [3] were 39.8 µM (inconclusive) and 15.8 µM (inconclusive), respectively.
Consider `CN(C)c1ccc(-c2nc3n(n2)C(c2cccnc2)C2=C(O)CC(C)(C)CC2=N3)cc1` (stereo not given), for which, in assay [8], the EC50 is listed as > 195 µM (not active). Besides, the concentration at half-maximal activity (AC50) in assay [1] was 28.2 µM (inconclusive); in assay [3], 17.8 µM (inconclusive).
With `CCOc1cc(NC(=O)c2ccccn2)c(OCC)cc1NC(=O)c1ccccc1`, the AC50 in assay [6] was 24.4 µM (active).
For `CCOC(=O)CSC1=N/C(=C\c2cc(OC)c(OC)c(OC)c2)C(=O)N1C`, the IC50 in assay [4] and in [5] was > 66 µM (inactive) in each case.
As to `Nc1ccc2c(c1)Oc1ccccc1C=C2`, the AC50 in assay [6] was > 195 µM (inactive).
`O=C(CN1CCc2ccccc21)NC(=O)NCc1ccco1`: the values for the AC50 in assay [2] and in assay [3] were 28.2 µM (inconclusive) and 14.1 µM (inconclusive), respectively.
With `CCN1C(=O)/C(=C/c2ccc(OC)c(OC)c2)N=C1SCC(=O)NCc1ccco1`, the IC50 in assay [4] and in [5] was > 66 µM (inactive) in each case.
On to `C/C(CCN1CCCc2nc(C)c(C)cc21)=N\O[C@@H](C)c1cn([C@H](CO)Cc2ccccc2)nn1`, for which the AC50 in assay [3] was 3.98 µM (inconclusive).
Turning to `O=C(NCCN1CCN(Cc2ccccc2)CC1)C1c2ccccc2C(=O)N2CCc3ccccc3C12` (stereo not given), the AC50 in assay [7] was 39.8 µM (inconclusive); in [3], 11.2 µM (inconclusive).
Regarding `c1ccc(Cc2nn3c(-c4ccncc4)nnc3s2)cc1`, the IC50 in assay [4] and in assay [5] was > 66 µM (inactive) in each case.
On to `Cc1ccc(S(=O)(=O)Nc2cc(C)c(O)c(Sc3nnc(C)[nH]3)c2)cc1`, for which the IC50 in assay [4] and in assay [5] was > 66 µM (inactive) in each case.
For `Nc1ccc(N=Nc2ccccc2)c2ccccc12`, the EC50 in assay [9] was 8.03 µM (active); in assay [10] it was 9.13 µM (active); in [11], > 150 µM (not active). Also, the AC50 in [6] was 6.49 µM (active).
Regarding `C=C(C)c1cccc(C(C)(C)NC(=O)Nc2cc(C)ccc2OC)c1`, in assay [3], the AC50 was 12.6 µM (inconclusive).
On the same count and under the same terms, the result for `c1ccc2nc(C3=NCCN3)ccc2c1` reads 20 µM (inconclusive).
For `CS(=O)(=O)N(Cc1ccccc1)c1ccc(C(=O)NCCSCc2ccco2)cc1`, the IC50 in [4] and in [5] was > 66 µM (inactive) throughout.
With `Nc1ccc(CCN2CCN(c3cccc(C(F)(F)F)c3)CC2)cc1`, the AC50 in assay [6] was 1.35 µM (active); in assay [3] it was 12.6 µM (inconclusive).
With `NC(=O)CC(NC(=O)Cc1ccc(Br)cc1)c1ccc(NCc2cc(F)ccc2F)c([N+](=O)[O-])c1` (stereo not given), the AC50 in assay [6] is 2.52 µM (active).
`FC(F)(F)c1ccccc1-c1nc(NCc2cccs2)c2ccccc2n1`: the AC50 in assay [3] is 25.1 µM (inconclusive).
Consider `Cc1cc(C)cc(NC(=O)Nc2ccc(-n3ccc(C(F)(F)F)n3)cc2)c1`, for which the AC50 in assay [6] was 1.61 µM (active).
On to `COc1cc2sc(-c3ccccc3OC)c(-c3ccc(O)cc3)c2cc1OC`, for which the AC50 in [6] was 2.32 µM (active).
With `CCN1C(=O)/C(=C2\SC(=S)N(c3c(C)n(C)n(-c4ccccc4)c3=O)C2=O)c2ccccc21`, the IC50 in [4] and in [5] was > 66 µM (inactive) in each case.
On to `CCCN1CCc2c(sc(NC(=O)c3ccc(S(=O)(=O)N(C)c4ccccc4)cc3)c2C(=O)NC)C1`, for which the AC50 in assay [6] is 3.26 µM (active).
With `COc1cccc2sc(Nc3nc(-c4ccncc4)cs3)nc12`, the EC50 was 3.65 µM (active) in assay [12], 3.2 µM (active) in assay [13], 0.601 µM (active) in assay [14] and 2.41 µM (active) in [15].
For the molecule `Cc1nc2cc(C(=O)O)ccc2s1`, the IC50 in assay [4] and in assay [5] was > 66 µM (inactive) in each case.
Take `Cc1ccc(/C=C/C(=O)Nc2nn[nH]n2)o1`: the IC50 in assay [4] and in assay [5] was > 66 µM (inactive) in each case.
For the molecule `Cc1csc(=O)n1CCC(=O)OCC(=O)NNC(=O)c1ccc(Cl)cc1`, the IC50 in [4] and in assay [5] was > 66 µM (inactive) throughout.
Turning to `C1CC2CN(c3nc4nonc4nc3N3CCSCC3)CCN2C1` (stereo not given), the IC50 in assay [4] and in assay [5] was > 66 µM (inactive) throughout.
On to `O=C(/C=C/c1ccco1)NC(=S)Nc1ccc(N2CCCC2)cc1`, for which the IC50 in assay [4] and in assay [5] was > 66 µM (inactive) in each case.
With `CC1=C(C(=O)OCc2ccccc2)C(c2ccc([N+](=O)[O-])cc2)NC(=O)N1CCCCCC(=O)O` (stereo not given), the AC50 in assay [2] was 10 µM (inconclusive); in [3] it was 20 µM (inconclusive).
As to `COCC(=O)N1CCC2(CCCN(c3ncccn3)C2)CC1`, in [3], the AC50 is 20 µM (inconclusive).
Consider `CC(C)NC(=O)N1CCCC2(CCN(C(=O)c3csnn3)CC2)C1`, for which the results for the AC50 in assay [2] and in [3] were 25.1 µM (inconclusive) and 12.6 µM (inconclusive), respectively.
For `O=c1c(-c2cccs2)nc2cnc(N3CCNCC3)nc2n1CCc1ccccc1`, in assay [3], the AC50 was 25.1 µM (inconclusive).
